Measurements reported in patent US20050004134A1, “Thiazole derivative and pharmaceutical use thereof” (priority 2001, published 2005).

| Structure (SMILES) | melting point [°C] |
| --- | --- |
| CC(C)n1nc(-c2sc(NC=O)nc2-c2ccc(F)cc2)ccc1=O [Example 76, 4-(4-fluorophenyl)-5-(1-isopropyl-6-oxo-1,6-dihydro-3-pyridazinyl)-1,3-thiazol-2-ylformamide] | 230 to 231 |
| COCCNCC(=O)Nc1nc(-c2ccccc2)c(-c2ccc(=O)n(C(C)C)n2)s1.Cl | 252 to 253 |
| CCN(CC)CCNCC(=O)Nc1nc(-c2ccccc2)c(-c2ccc(=O)n(C(C)C)n2)s1.Cl.Cl | 157 to 159 |
| CC(C)n1nc(-c2sc(NC(=O)OC(C)(C)C)nc2-c2ccccc2)ccc1=O [Example 95, tert-butyl 5-(1-isopropyl-6-oxo-1,6-dihydro-3-pyridazinyl)-4-phenyl-1,3-thiazol-2-ylcarbamate] | 198 to 199 |
| CC(C)n1nc(-c2sc(NC(=O)c3ccc(C(F)(F)F)cc3)nc2-c2ccccc2)ccc1=O [Example 39, N-[5-(1-Isopropyl-6-oxo-1,6-dihydro-3-pyridazinyl)-4-phenyl-1,3-thiazol-2-yl]-4-(trifluoromethyl)benzamide] | 162 to 167 |
| CC(C)n1nc(-c2sc(NCCCN3CCOCC3)nc2-c2ccccc2)ccc1=O.Cl.Cl | 150 to 153 |
| CC(C)n1nc(-c2sc(NC(=O)c3ccc(CNCCO)cc3)nc2-c2ccccc2)ccc1=O [Example 138, 4-{[(2-Hydroxyethyl)amino]methyl}-N-[5-(1-isopropyl-6-oxo-1,6-dihydro-3-pyridazinyl)-4-phenyl-1,3-thiazol-2-yl]benzamide] | 111 to 113 |
| O=c1ccc(-c2sc(NCc3ccccc3)nc2-c2ccccc2)nn1Cc1ccccc1 [Example 92, 2-benzyl-6-[2-(benzylamino)-4-phenyl-1,3-thiazol-5-yl]-3(2H)-pyridazinone] | 163.5 to 165 |
| COc1ccccc1C(=O)Nc1nc(-c2ccccc2)c(-c2ccc(=O)n(C(C)C)n2)s1 [Example 41, N-[5-(1-Isopropyl-6-oxo-1,6-dihydro-3-pyridazinyl)-4-phenyl-1,3-thiazol-2-yl]-2-methoxybenzamide] | > 250 |
| CC(C)n1nc(-c2sc(NC(=O)C3CC3)nc2-c2ccc(F)cc2)ccc1=O [Example 57, N-[4-(4-Fluorophenyl)-5-(1-isopropyl-6-oxo-1,6-dihydro-3-pyridazinyl)-1,3-thiazol-2-yl]cyclopropanecarboxamide] | 250 to 252 |
| Nc1nc(-c2ccccc2)c(-c2ccc(=O)n(Cc3ccccc3)n2)s1 [Example 92, 6-(2-Amino-4-phenyl-1,3-thiazol-5-yl)-2-benzyl-3(2H)-pyridazinone] | 225 to 228 |
| CC(=O)N(C)c1nc(-c2ccccc2)c(-c2ccc(=O)n(C(C)C)n2)s1 [Example 22, N-[5-(1-isopropyl-6-oxo-1,6-dihydro-3-pyridazinyl)-4-phenyl-1,3-thiazol-2-yl]-N-methylacetamide] | 165 to 167 |
| CC(C)n1nc(-c2sc(NC(=O)CN3CCCC3)nc2-c2ccccc2)ccc1=O.Cl | > 250 |
| Nc1nc(-c2ccccc2)c(-c2ccc(=O)n(CC3CC3)n2)s1 [Example 88, 6-(2-Amino-4-phenyl-1,3-thiazol-5-yl)-2-(cyclopropylmethyl)-3(2H)-pyridazinone] | 204 to 206 |
| CC(C)n1nc(-c2sc(NCCCN3CCOCC3)nc2-c2ccccc2)ccc1=O [Example 68, 2-I sopropyl-6-(2-{[3-(4-morpholinyl)propyl]amino}-4-phenyl-1,3-thiazol-5-yl)-3(2H)-pyridazinone] | 194 to 195 |
| CC(C)n1nc(-c2sc(NC(=O)c3cccc(C(F)(F)F)c3)nc2-c2ccccc2)ccc1=O [Example 38, N-[5-(1-Isopropyl-6-oxo-1,6-dihydro-3-pyridazinyl)-4-phenyl-1,3-thiazol-2-yl]-3-(trifluoromethyl)benzamide] | 237 to 238 |
| CC(C)n1nc(-c2sc(NC(=O)CN(C)CCN(C)C)nc2-c2ccccc2)ccc1=O [Example 118, 2-[(2-(Dimethylamino)ethyl)(methyl)amino]-N-[5-(1-isopropyl-6-oxo-1,6-dihydro-3-pyridazinyl)-4-phenyl-1,3-thiazol-2-yl]acetamide] | 155 to 157 |
| CC(C)n1nc(-c2sc(NC(=O)CNC3CC3)nc2-c2ccccc2)ccc1=O.Cl | 123 to 125 |
| Br.CNc1nc(-c2ccccc2)c(-c2ccc(=O)n(C(C)C)n2)s1 | 226 to 228 |
| CC(C)n1nc(-c2sc(NC(=O)c3ccccc3C(F)(F)F)nc2-c2ccccc2)ccc1=O [Example 40, N-[5-(1-Isopropyl-6-oxo-1,6-dihydro-3-pyridazinyl)-4-phenyl-1,3-thiazol-2-yl]-2-(trifluoromethyl)benzamide] | 219 to 220 |

More lines, now with the values ahead:

| melting point [°C] | Structure (SMILES) |
| --- | --- |
| 220 to 222 | CC(=O)N1CCN(CC(=O)Nc2nc(-c3ccccc3)c(-c3ccc(=O)n(C(C)C)n3)s2)CC1 [Example 150, 2-(4-Acetyl-1-piperazinyl)-N-[5-(1-isopropyl-6-oxo-1,6-dihydro-3-pyridazinyl)-4-phenyl-1,3-thiazol-2-yl]acetamide] |
| 121 to 122 | CCCNC(=O)c1nc(-c2ccccc2)c(-c2ccc(=O)n(CCC)n2)s1 [Example 172, 5-(6-oxo-1-propyl-1,6-dihydro-3-pyridazinyl)-4-phenyl-N-propyl-1,3-thiazole-2-carboxamide] |
| 163 to 164 | Cn1nc(-c2sc(C(=O)NC3CC3)nc2-c2ccccc2)ccc1=O [Example 189, N-cyclopropyl-5-(1-methyl-6-oxo-1,6-dihydro-3-pyridazinyl)-4-phenyl-1,3-thiazole-2-carboxamide] |
| 161.5 to 162.5 | CC(C)n1nc(-c2sc(C(=O)N3CCOCC3)nc2-c2ccccc2)ccc1=O [Example 227, 2-Isopropyl-6-[2-(4-morpholinylcarbonyl)-4-phenyl-1,3-thiazol-5-yl]-3(2H)-pyridazinone] |
| 169 to 170.5 | CCn1nc(-c2sc(C(=O)NCc3ccccn3)nc2-c2ccccc2)ccc1=O [Example 202, 5-(1-Ethyl-6-oxo-1,6-dihydro-3-pyridazinyl)-4-phenyl-N-(2-pyridinylmethyl)-1,3-thiazole-2-carboxamide] |
| 103.5 to 105.5 | CC(C)NC(=O)c1nc(-c2cccc(F)c2)c(-c2ccc(=O)n(C(C)C)n2)s1 [Example 185, 4-(3-fluorophenyl)-N-isopropyl-5-(1-isopropyl-6-oxo-1,6-dihydro-3-pyridazinyl)-1,3-thiazole-2-carboxamide] |
| 222 to 223 | CC(C)n1nc(-c2sc(C(N)=O)nc2-c2ccccc2)ccc1=O [Example 161, 5-(1-Isopropyl-6-oxo-1,6-dihydro-3-pyridazinyl)-4-phenyl-1,3-thiazole-2-carboxamide] |
| 232 to 233 | CCCNC(=O)c1nc(-c2ccccc2)c(-c2ccc(=O)[nH]n2)s1 [Example 169, 5-(6-oxo-1,6-dihydro-3-pyridazinyl)-4-phenyl-N-propyl-1,3-thiazole-2-carboxamide] |
| 248 to 250 | CC(C)n1nc(-c2sc(C(N)=O)nc2-c2cccc(F)c2)ccc1=O [Example 164, 4-(3-Fluorophenyl)-5-(1-isopropyl-6-oxo-1,6-dihydro-3-pyridazinyl)-1,3-thiazole-2-carboxamide] |
